Test results from the supplement of paper PMC10307832.

Columns and labels:
Experiment in all cases: relative viability (nuclei count vs DMSO), 5 days (fraction); higher = more cells survive
BEN = tested on: BEN
Outline: (§1)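 Lung cancer cell lines in 1536-well plates were dosed by pin tool the day after seeding, either with one drug alone or with a fixed anchor-drug dose plus five library-drug doses (not always all listed) in √10 steps. After 5 days, cells were fixed and their nuclei stained in one step (final 0.05% Triton X-100, 1% formaldehyde, 1 ug/ml Hoechst), then counted on 4× images. Relative viability is the nuclei count in treated wells divided by that in vehicle wells. Values are medians of duplicate plates.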

EKVX = tested on: EKVX
Outline: as §1

SW 900 = tested on: SW 900
Outline: as §1

HCC-366 = tested on: HCC-366
Outline: as §1

NCI-H1650 = tested on: NCI-H1650
Outline: as §1

PC-14 = tested on: PC-14
Outline: as §1

LOU-NH91 = tested on: LOU-NH91
Outline: as §1

NCI-H3122 = tested on: NCI-H3122
Outline: as §1

NCI-H661 = tested on: NCI-H661
Outline: as §1

NCI-H441 = tested on: NCI-H441
Outline: as §1

NCI-H2009 = tested on: NCI-H2009
Outline: as §1

NCI-H460 = tested on: NCI-H460
Outline: as §1

201T = tested on: 201T
Outline: as §1

NCI-H1666 = tested on: NCI-H1666
Outline: as §1

CAL-12T = tested on: CAL-12T
Outline: as §1

COR-L 105 = tested on: COR-L 105
Outline: as §1

LK-2 = tested on: LK-2
Outline: as §1

HARA = tested on: HARA
Outline: as §1

NCI-H1437 = tested on: NCI-H1437
Outline: as §1

NCI-H2170 = tested on: NCI-H2170
Outline: as §1

Compound Nc1ccn([C@@H]2O[C@H](CO)[C@@H](O)[C@@H]2O)c(=O)n1 [Cytarabine] + Nc1nc2[nH]cc(CCc3ccc(C(=O)N[C@@H](CCC(=O)O)C(=O)O)cc3)c2c(=O)[nH]1 [Pemetrexed] (partner 0.2 µM) has a relative viability (BEN; first compound 0.005 µM) of 0.632, a relative viability (BEN; first compound 0.01581 µM) of 0.512 and a relative viability (BEN; first compound 0.05 µM) of 0.383. For the same compound, the relative viability (BEN; first compound 0.1581 µM) was 0.366, the relative viability (BEN; first compound 0.5 µM) was 0.287 and the relative viability (EKVX; first compound 0.005 µM) was 0.473. It also gave a relative viability (EKVX; first compound 0.01581 µM) of 0.364, a relative viability (EKVX; first compound 0.05 µM) of 0.361 and a relative viability (EKVX; first compound 0.5 µM) of 0.362. For the same compound, the relative viability (SW 900; first compound 0.005 µM) was 0.432, the relative viability (SW 900; first compound 0.01581 µM) was 0.499 and the relative viability (SW 900; first compound 0.05 µM) was 0.441. For the same compound, the relative viability (SW 900; first compound 0.1581 µM) was 0.179, the relative viability (SW 900; first compound 0.5 µM) was 0.143 and the relative viability (HCC-366; first compound 0.005 µM) was 0.161. It also gave a relative viability (HCC-366; first compound 0.01581 µM) of 0.217, a relative viability (HCC-366; first compound 0.05 µM) of 0.25 and a relative viability (HCC-366; first compound 0.1581 µM) of 0.0693. The relative viability (HCC-366; first compound 0.5 µM) was 0.062, the relative viability (NCI-H1650; first compound 0.005 µM) was 0.367 and the relative viability (NCI-H1650; first compound 0.01581 µM) was 0.353. It also gave a relative viability (NCI-H1650; first compound 0.05 µM) of 0.262, a relative viability (NCI-H1650; first compound 0.1581 µM) of 0.199 and a relative viability (NCI-H1650; first compound 0.5 µM) of 0.158. For the same compound, the relative viability (PC-14; first compound 0.005 µM) was 0.183, the relative viability (PC-14; first compound 0.01581 µM) was 0.156 and the relative viability (PC-14; first compound 0.05 µM) was 0.187. It also gave a relative viability (PC-14; first compound 0.1581 µM) of 0.0581, a relative viability (PC-14; first compound 0.5 µM) of 0.0565 and a relative viability (LOU-NH91; first compound 0.005 µM) of 0.383. For the same compound, the relative viability (LOU-NH91; first compound 0.01581 µM) was 0.395, the relative viability (LOU-NH91; first compound 0.05 µM) was 0.379 and the relative viability (LOU-NH91; first compound 0.1581 µM) was 0.318. For the same compound, the relative viability (LOU-NH91; first compound 0.5 µM) was 0.339, the relative viability (NCI-H3122; first compound 0.005 µM) was 0.207 and the relative viability (NCI-H3122; first compound 0.01581 µM) was 0.196. For the same compound, the relative viability (NCI-H3122; first compound 0.05 µM) was 0.227, the relative viability (NCI-H3122; first compound 0.1581 µM) was 0.381 and the relative viability (NCI-H3122; first compound 0.5 µM) was 0.156. It also gave a relative viability (NCI-H661; first compound 0.005 µM) of 0.94, a relative viability (NCI-H661; first compound 0.01581 µM) of 0.849 and a relative viability (NCI-H661; first compound 0.05 µM) of 0.851. The relative viability (NCI-H661; first compound 0.1581 µM) was 0.609, the relative viability (NCI-H661; first compound 0.5 µM) was 0.373 and the relative viability (NCI-H441; first compound 0.005 µM) was 0.273. The relative viability (NCI-H441; first compound 0.01581 µM) was 0.251, the relative viability (NCI-H441; first compound 0.05 µM) was 0.331 and the relative viability (NCI-H441; first compound 0.1581 µM) was 0.226. It also gave a relative viability (NCI-H441; first compound 0.5 µM) of 0.144, a relative viability (NCI-H2009; first compound 0.005 µM) of 0.971 and a relative viability (NCI-H2009; first compound 0.01581 µM) of 0.99. For the same compound, the relative viability (NCI-H2009; first compound 0.05 µM) was 0.996, the relative viability (NCI-H2009; first compound 0.1581 µM) was 0.827 and the relative viability (NCI-H2009; first compound 0.5 µM) was 0.258. For the same compound, the relative viability (NCI-H460; first compound 0.005 µM) was 0.0718, the relative viability (NCI-H460; first compound 0.01581 µM) was 0.0671 and the relative viability (NCI-H460; first compound 0.05 µM) was 0.0853. For the same compound, the relative viability (NCI-H460; first compound 0.1581 µM) was 0.0459, the relative viability (NCI-H460; first compound 0.5 µM) was 0.037 and the relative viability (201T; first compound 0.005 µM) was 0.361. For the same compound, the relative viability (201T; first compound 0.01581 µM) was 0.353, the relative viability (201T; first compound 0.05 µM) was 0.309 and the relative viability (201T; first compound 0.1581 µM) was 0.325. The relative viability (201T; first compound 0.5 µM) was 0.25, the relative viability (NCI-H1666; first compound 0.005 µM) was 0.761 and the relative viability (NCI-H1666; first compound 0.01581 µM) was 0.718. It also gave a relative viability (NCI-H1666; first compound 0.05 µM) of 0.754, a relative viability (NCI-H1666; first compound 0.1581 µM) of 0.655 and a relative viability (NCI-H1666; first compound 0.5 µM) of 0.616. For the same compound, the relative viability (CAL-12T; first compound 0.005 µM) was 0.928, the relative viability (CAL-12T; first compound 0.01581 µM) was 1.11 and the relative viability (CAL-12T; first compound 0.05 µM) was 0.984. For the same compound, the relative viability (CAL-12T; first compound 0.1581 µM) was 0.543, the relative viability (CAL-12T; first compound 0.5 µM) was 0.249 and the relative viability (COR-L 105; first compound 0.005 µM) was 0.961. It also gave a relative viability (COR-L 105; first compound 0.01581 µM) of 1.19, a relative viability (COR-L 105; first compound 0.05 µM) of 0.678 and a relative viability (COR-L 105; first compound 0.1581 µM) of 0.579. The relative viability (COR-L 105; first compound 0.5 µM) was 0.383, the relative viability (LK-2; first compound 0.005 µM) was 0.34 and the relative viability (LK-2; first compound 0.01581 µM) was 0.233. It also gave a relative viability (LK-2; first compound 0.05 µM) of 0.11, a relative viability (LK-2; first compound 0.1581 µM) of 0.091 and a relative viability (LK-2; first compound 0.5 µM) of 0.0936. The relative viability (HARA; first compound 0.005 µM) was 0.243, the relative viability (HARA; first compound 0.01581 µM) was 0.221 and the relative viability (HARA; first compound 0.05 µM) was 0.217. For the same compound, the relative viability (HARA; first compound 0.1581 µM) was 0.171, the relative viability (HARA; first compound 0.5 µM) was 0.153 and the relative viability (NCI-H1437; first compound 0.005 µM) was 0.339. For the same compound, the relative viability (NCI-H1437; first compound 0.01581 µM) was 0.344, the relative viability (NCI-H1437; first compound 0.05 µM) was 0.335 and the relative viability (NCI-H1437; first compound 0.1581 µM) was 0.321. For the same compound, the relative viability (NCI-H1437; first compound 0.5 µM) was 0.258, the relative viability (NCI-H2170; first compound 0.005 µM) was 0.331 and the relative viability (NCI-H2170; first compound 0.01581 µM) was 0.291. For the same compound, the relative viability (NCI-H2170; first compound 0.05 µM) was 0.333, the relative viability (NCI-H2170; first compound 0.1581 µM) was 0.205 and the relative viability (NCI-H2170; first compound 0.5 µM) was 0.183.
